The values below come from patent publication US20030068615A1, “Polypeptides that bind HIV gp120 and related nucleic acids, antibodies, compositions, and methods of use” (priority 1999, published 2003).

The target of this test is HIV-1LAI envelope gp120 (Human immunodeficiency virus type 1 group M subtype B, UniProt P03377). Type of test: binding. To be noted: for Counts per 20′ Average-background: CCR5 18-mer scan, radiolabeled HIV-1LAI gp120; for number of radioactive decays (counts) counted: human CD4 21-mer scan, empty control 2075; for Binding Results For Window Length (counts bound-background), 9 / Binding Results For Window Length (counts bound-background), 12 / Binding Results For Window Length (counts bound-background), 15 / Binding Results For Window Length (counts bound-background), 18: STRL33 amino terminus; for Binding Results For Window Length (counts bound-background), 9: 9-mer starting at the first residue of the printed sequence; for Binding Results For Window Length (counts bound-background), 12: 12-mer starting at the first residue of the printed sequence; for Binding Results For Window Length (counts bound-background), 15: 15-mer starting at the first residue of the printed sequence; for Binding Results For Window Length (counts bound-background), 18: 18-mer starting at the first residue of the printed sequence.

[1] abbreviates: Panel D, 9-mers and 12-mers of CD4, empty control […].
[2] abbreviates: Panel B, 15-mers and 18-mers of CD4, empty control 575.
[3] abbreviates: STRL33 18-mer scan, background subtracted, first of two count columns.
[4] abbreviates: STRL33 18-mer scan, background subtracted, second of two count columns.
Setting [5] is: CXCR4 18-mer scan, background subtracted, empty control 0.
Setting [6] is: CXCR4 18-mer scan, empty control 412.
[7] abbreviates: Panel E, 9-mers and 12-mers of CD4, empty control 571.
Setting [8] is: Panel C, 15-mers and 18-mers of CD4, empty control 556.
[9] abbreviates: Panel A, 21-mers of CD4, empty control 515 and 617.
Setting [10] is: Panel G, alanine replacements and serial truncations (Z) of CD4 polypeptides, empty control 580.

“And” between values parts separate entries of the source, which are not always exact repeats. Equal entries are not always repeated. Where two headings read alike, the source gives them in different places.

FGLTANSDTHLL: the “COUNTS of radiolabeled gp120 retained” value under setting [1] came out at 571 counts.
For the sequence FGLTANSDTHLLQGQ, under setting [2], the “COUNTS of radiolabeled gp120 retained” value came to 625 counts.
On the same count and under the same terms, in the case of FGLTANSDTHLLQGQSLT it was 591 counts.
FGQVMCKSLLGIYTINFY: the “radioactive counts recorded in twenty minutes” value (“radioactive counts recorded” for short) under setting [3] is reported as 1257.5 counts and the “radioactive counts recorded” value under setting [4] amounted to 1354.5 counts.
Consider “FHCCLNPILYAFLGAKFK [CXCR4 segment 293-310]”, for which the “radioactive counts recorded” value under setting [5] came out at 123 counts and the “radioactive counts recorded” value under setting [6] came out at 535 counts.
In the case of FIFGFVGNMLVILILINC [CCR5 segment 41-58], the “Counts per 20′ Average-background” value (background subtracted) stood at 343 counts per 20′.
On the same count and under the same terms, in the case of FIGFFSGIFFIILLTIDR it was 76 counts per 20′.
FIGLGIFFCVRCRHRRRQAER: the “number of radioactive decays (counts) counted” value (“number of radioactive decays” below) was found to be 1900 counts.
On to FISLDRYLAIVHATNSQR, for which the “radioactive counts recorded” value reads like this: under setting [5], 91 counts; under setting [6], 503 counts.
Regarding FKIDIVVLA, the “COUNTS of radiolabeled gp120 retained” value under setting [7] is 568 counts.
As to FKIDIVVLAFQK, the “COUNTS of radiolabeled gp120 retained” value under setting [7] amounted to 736 counts.
Turning to FKIDIVVLAFQKASS, the “COUNTS of radiolabeled gp120 retained” value under setting [8] is listed as 1001 counts.
Same read-out and setting: in the case of FKIDIVVLAFQKASSIVY it was 843 counts.
With FKIDIVVLAFQKASSIVYKKE, the “COUNTS of radiolabeled gp120 retained” value under setting [9] came out at 593 counts.
Regarding FKTSAQHALTSVSRGSSL, the “radioactive counts recorded” value runs as follows: under setting [5], 173 counts; under setting [6], 585 counts.
Take FLFWAPYNIVLLLNTFQE [CCR5 segment 245-]: where the note is “background subtracted”, the “Counts per 20′ Average-background” value was determined as 616 counts per 20′.
For the sequence “FLPCMYLVVFVCGLVGNS [STRL33 segment 33-50]”, the “radioactive counts recorded” value was 605.5 counts under setting [3] and 372.5 counts under setting [4].
Consider FLPLLTMIVCYSVIIKTL, for which the “radioactive counts recorded” value is on record as 1270.5 counts under setting [3] and 1195.5 counts under setting [4].
Consider “FLTGIVGNGLVILVMGYQ [CXCR4 segment 49-66]”, for which the “radioactive counts recorded” value runs as follows: under setting [5], 246 counts; under setting [6], 658 counts.
With “FLVNLPLADLVFVCTLPF [STRL33 segment 69-86]”, the “radioactive counts recorded” value by setting is: under setting [3], 70.5 counts; under setting [4], 51.5 counts.
As to FNDSSQEEEQAFLQFSKV, for the setting “background subtracted”, the “Binding Results For Window Length (counts bound-background), 9” value is reported as 246 counts; the “Binding Results For Window Length (counts bound-background), 12” value came to 470 counts; the “Binding Results For Window Length (counts bound-background), 15” value came out at 4089 counts; the “Binding Results For Window Length (counts bound-background), 18” value is 4678 counts.
Regarding FNLDKLICGYHDEAISTV, the “radioactive counts recorded” value by setting is: under setting [3], 1072.5 counts; under setting [4], 1078.5 counts.
Regarding FPLAFTVEK, the “COUNTS of radiolabeled gp120 retained” value under setting [7] amounted to 569 counts.
Still for that read-out and setting: in the case of FPLAFTVEKLTG it was 622 counts.
Take FPLAFTVEKLTGSGE: under setting [8], the “COUNTS of radiolabeled gp120 retained” value was 556 counts.
Same read-out and setting: in the case of FPLAFTVEKLTGSGELWW it was 586 counts.
With FPLAFTVEKLTGSGELWWQAE, under setting [9], the “COUNTS of radiolabeled gp120 retained” value came to 6276 counts.
With FPLIIKNLK, under setting [1], the “COUNTS of radiolabeled gp120 retained” value is 601 counts.
For the sequence FPLIIKNLKIED, under setting [1], the “COUNTS of radiolabeled gp120 retained” value is given as 511 counts.
With FPLIIKNLKIEDSDT, under setting [2], the “COUNTS of radiolabeled gp120 retained” value was 539 counts.
Still for that read-out and setting: in the case of FPLIIKNLKIEDSDTYIC it was 509 counts.
In the case of FQHIMVGLILPGIVILSC, the “radioactive counts recorded” value reads like this: under setting [5], 170 counts; under setting [6], 582 counts.
As for FQKASSIVY, the “COUNTS of radiolabeled gp120 retained” value under setting [7] was 568 counts.
Same read-out and setting: in the case of FQKASSIVYKKE it was 577 counts.
Consider FQKASSIVYKKEGEQ, for which the “COUNTS of radiolabeled gp120 retained” value under setting [8] is given as 637 counts.
For the sequence FQKASSIVYKKEGEQVEF, under setting [8], the “COUNTS of radiolabeled gp120 retained” value is reported as 528 counts.
Take FQKASSIVYKKEGEQVEFSFP: the “COUNTS of radiolabeled gp120 retained” value under setting [9] was 9382 counts.
As for FQTLKIVILGLVLPLLVM [CCR5 segment 193-], under “background subtracted”, the “Counts per 20′ Average-background” value worked out at 45 counts per 20′.
With “FREENANFNKIFLPTIYS [CXCR4 segment 29-46]”, the “radioactive counts recorded” value by setting is: under setting [5], 51 counts; under setting [6], 463 counts.
As to FSFPLAFTV, under setting [7], the “COUNTS of radiolabeled gp120 retained” value is reported as 472 counts.
Take FSFPLAFTVEKL: under setting [7], the “COUNTS of radiolabeled gp120 retained” value is given as 573 counts.
In the case of FSFPLAFTVEKLTGS, the “COUNTS of radiolabeled gp120 retained” value under setting [8] worked out at 672 counts.
Still for that read-out and setting: in the case of FSFPLAFTVEKLTGSGEL it was 613 counts.
Regarding FSFPLAFTVEKLTGSGELWWQ, the “number of radioactive decays” value is listed as 9673 counts. For the same sequence, under setting [9], the “COUNTS of radiolabeled gp120 retained” value turned out to be 4163 counts.
For FSGIFFIILLTIDRYLAV [CCR5 segment 113-], the “Counts per 20′ Average-background” value (background subtracted) is on record as 83 counts per 20′.
In the case of “FSKVFLPCMYLVVFVCGL [STRL33 segment 29-46]”, the “radioactive counts recorded” value by setting is: under setting [3], 534.5 counts; under setting [4], 633.5 counts.
With FSSFNDSSQEEHQAFLQF, where the note is “background subtracted”, the “Binding Results For Window Length (counts bound-background), 9” value was 249 counts; the “Binding Results For Window Length (counts bound-background), 12” value is reported as 403 counts; the “Binding Results For Window Length (counts bound-background), 15” value is 361 counts; the “Binding Results For Window Length (counts bound-background), 18” value was 3608 counts.
As to FTVEKLTGS, under setting [7], the “COUNTS of radiolabeled gp120 retained” value was 574 counts.
For the sequence FTVEKLTGSGEL, under setting [7], the “COUNTS of radiolabeled gp120 retained” value came to 530 counts.
For the sequence FTVEKLTGSGELWWQ, the “COUNTS of radiolabeled gp120 retained” value under setting [8] amounted to 625 counts.
Take FTVEKLTGSGELWWQAER: the “COUNTS of radiolabeled gp120 retained” value under setting [8] was 1143 counts.
As to FVGNMLVILILINCKRLK [CCR5 segment 45-62], the “Counts per 20′ Average-background” value (background subtracted) was 62 counts per 20′.
In the case of FWAHYAAAQWDFGNTMCQ [CCR5 segment 85-], the “Counts per 20′ Average-background” value (background subtracted) is given as 212 counts per 20′.
Take “FWAVDAVANWYFGNFLCK [CXCR4 segment 93-110]”: the “radioactive counts recorded” value under setting [5] is given as 66 counts and the “radioactive counts recorded” value under setting [6] was 478 counts.
For FWKNFQTLKIVILGLVLP [CCR5 segment 189-], the “Counts per 20′ Average-background” value (background subtracted) turned out to be 40 counts per 20′.
For the sequence “FYPNDLWVVVFQFQHIMV [CXCR4 segment 189-206]”, the “radioactive counts recorded” value runs as follows: under setting [5], 416 counts; under setting [6], 828 counts.
Consider “FYTSMLILTCITVDRFIV [STRL33 segment 113-130]”, for which the “radioactive counts recorded” value worked out at 744.5 counts under setting [3] and 907.5 counts under setting [4].
On to GAQVEFSFPLAFTVE, for which the “COUNTS of radiolabeled gp120 retained” value under setting [10] was 18079 counts and 17733 counts.
With “GCEFENTVHKWISITEAL [CXCR4 segment 273-290]”, the “radioactive counts recorded” value runs as follows: under setting [5], 264 counts; under setting [6], 676 counts.
As for GEAVEFSFPLAFTVE, under setting [10], the “COUNTS of radiolabeled gp120 retained” value is 19756 counts and 17500 counts.
As to GEKFRNYLLVFFQKHIAK [CCR5 segment 301-], the “Counts per 20′ Average-background” value (background subtracted) was 69 counts per 20′.
In the case of “GELWWQAERASSSKSWITFDL [human CD4 236-256]”, the “number of radioactive decays” value worked out at 2730 counts.
For GEQAEFSFPLAFTVE, under setting [10], the “COUNTS of radiolabeled gp120 retained” value was 14764 counts and 13000 counts.
In the case of GEQVAFSFPLAFTVE, the “COUNTS of radiolabeled gp120 retained” value under setting [10] was 16668 counts and 13930 counts.
As to GEQVEASFPLAFTVE, under setting [10], the “COUNTS of radiolabeled gp120 retained” value is 6793 counts and 6533 counts.
As to GEQVEFAFPLAFTVE, the “COUNTS of radiolabeled gp120 retained” value under setting [10] was 21681 counts and 20072 counts.
As for GEQVEFSAPLAFTVE, under setting [10], the “COUNTS of radiolabeled gp120 retained” value is 7767 counts and 7378 counts.
In the case of GEQVEFSFALAFTVE, the “COUNTS of radiolabeled gp120 retained” value under setting [10] is 20480 counts and 19480 counts.
As to GEQVEFSFP, the “COUNTS of radiolabeled gp120 retained” value under setting [7] is recorded as 697 counts.
On to GEQVEFSFPAAFTVE, for which the “COUNTS of radiolabeled gp120 retained” value under setting [10] was 10024 counts and 10589 counts.
On the same count and under the same terms, under GEQVEFSFPLAATVE stands 10130 counts and 9572 counts.
GEQVEFSFPLAF: the “COUNTS of radiolabeled gp120 retained” value under setting [7] worked out at 1729 counts.
GEQVEFSFPLAFAVE: under setting [10], the “COUNTS of radiolabeled gp120 retained” value is 20627 counts and 19516 counts.
In the case of GEQVEFSFPLAFTAE, the “COUNTS of radiolabeled gp120 retained” value under setting [10] is 18797 counts and 16765 counts.
GEQVEFSFPLAFTVA: the “COUNTS of radiolabeled gp120 retained” value under setting [10] is 18371 counts and 18187 counts.
Turning to GEQVEFSFPLAFTVE, the “COUNTS of radiolabeled gp120 retained” value is 4656 counts under setting [8]; 18856 counts and 18867 counts and 20691 counts and 17662 counts and 19190 counts and 18219 counts under setting [10].
Turning to GEQVEFSFPLAFTVEKLT, the “COUNTS of radiolabeled gp120 retained” value under setting [8] was 1643 counts.
For “GEQVEFSFPLAFTVEKLTGSG [human CD4 216-236]”, the “number of radioactive decays” value came out at 18549 counts. For the same sequence, the “COUNTS of radiolabeled gp120 retained” value under setting [9] is 652 counts.
In the case of GEQVEFSFPLTFTVE, the “COUNTS of radiolabeled gp120 retained” value under setting [10] is 17397 counts and 18318 counts.
